Source: US11786534B2 (TAIHO PHARMACEUTICAL CO., LTD., priority 2019, dated 2023)
Where two headings read alike, the source gives them in different places.

Key:
[1] = target: T1, human EGFR (L858R/T790M/C797S) (Homo sapiens, UniProt P00533, C797S/L858R/T790M); assay: Inhibitory activity against EGFR (L858R/T790M/C797S) kinase; type: biochemical; conditions: Test Example 1, Table 3; ATP 0.5 μM
T1 construct: made in house; host or cells: Sf9 insect cells, baculovirus
Outline: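 GST-tagged cytoplasmic domain of human EGFR L858R/T790M/C797S, expressed in Sf9 insect cells via baculovirus and glutathione-purified. Kinase reaction run at 0.5 μM ATP final; IC50 (nM) determined per compound.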

[2] = target: Ba/F3-EGFR (d746-750/T790M/C797S) (Homo sapiens, UniProt P00533, DEL746-750/T790M/C797S, cells depend on it); assay: Growth inhibition of cell line expressing EGFR (d746-750/T790M/C797S); type: cell-based, mouse; conditions: read-out: BaF3_EGFR (d746-750/T790M/C797S) IC50 value
Text: (§1) Test for inhibitory activity against the growth of cell lines expressing wild-type and mutated EGFRs (in vitro)
(§2) (1) Mouse cell line Ba/F3-EGFR (d746-750/T790M/C797S) transfected with and stably expressing EGFR (d746-750/T790M/C797S), mouse cell Ba/F3-EGFR (L858R/T790M/C797S) transfected with and stably expressing EGFR (L858R/T790M/C797S), and mouse cell line Ba/F3-EGFR (WT) transfected with and stably expressing wild-type EGFR were each suspended in RPMI-1640 cell culture medium (RPMI-1640, 10% FBS, 100 unit/ml penicillin, 0.1 mg/ml streptomycin). In the case of the mouse cell line Ba/F3-EGFR (WT), RPMI-1640 cell culture medium containing EGF at a final concentration of 50 ng/ml was used to suspend this cell line. It should be noted that the mouse cell line Ba/F3-EGFR (d746-750/T790M/C797S) transfected with and stably expressing EGFR (d746-750/T790M/C797S), the mouse cell line Ba/F3-EGFR (L858R/T790M/C797S) transfected with and stably expressing EGFR (L858R/T790M/C797S) and the mouse cell line Ba/F3-EGFR (WT) transfected with and stably expressing wild-type EGFR were prepared by using nucleotide sequences encoding the proteins of SEQ ID NOs: 1 and 2 in accordance with Test Example 1 in WO2018/079310, These cell suspensions were seeded in wells of 96-well flat -bottomed plates. The compounds of the present invention were dissolved in DMSO, and serial dilutions of these test compounds were prepared with DMSO (1000-fold of the final concentration). Each test compound solution in DMSO or DMSO alone was diluted with RPMI-1640 cell culture medium for each cell line, and this dilution was added to wells of the cell culture plate such that the final concentration of DMSO was 0.1%, followed by culture at 37° C. for 3 days in a 5% carbon dioxide gas-containing incubator. Before and after addition of each test compound solution in DMSO, the number of cells was counted using the CellTiter-Glo® system (Promega) on the basis of the protocol recommended by Promega.
(§3) In each cell line, the rate of cell growth inhibition was calculated according to the equation shown below in wells to which each test compound was added at different concentrations. Moreover, the inhibition rate at each concentration was plotted for each test compound, and the concentration of each test compound required to give 50% cell survival rate, i.e., IC50 (nM) was determined by curve fitting software XLfit (IDBS).
(§4) Cell survival rate (%)=T/C×100
(§5) T: emission intensity in a well cultured for 3 days after addition of a test compound solution
(§6) C: emission intensity in a well cultured for 3 days after addition of DMSO
(§7) In accordance with the same procedures as shown in Test Example 2, the compounds of the present invention were tested for their inhibitory activity against the growth of the cell hoes expressing wild-type and mutated EGFRs.

Ba/F3-EGFR (WT) = Ba/F3-EGFR (WT) (Homo sapiens, UniProt P00533); assay: Growth inhibition of cell line expressing wild-type EGFR; type: cell-based, mouse; conditions: read-out: BaF3_EGFR (WT) IC50 value
Text: as §1, §2, §3, §4, §5, §6, §7

[3] = Test Example 2, Table 7, culture 3 days, CellTiter-Glo
[4] = Test Example 2, Table 7, culture 3 days, EGF 50 ng/ml, CellTiter-Glo
[5] = Test Example 4, Table 13, same procedures as Test Example 2

T1 sequence (P00533 with tags, fused parts or gaps T790M/C797S/L858R): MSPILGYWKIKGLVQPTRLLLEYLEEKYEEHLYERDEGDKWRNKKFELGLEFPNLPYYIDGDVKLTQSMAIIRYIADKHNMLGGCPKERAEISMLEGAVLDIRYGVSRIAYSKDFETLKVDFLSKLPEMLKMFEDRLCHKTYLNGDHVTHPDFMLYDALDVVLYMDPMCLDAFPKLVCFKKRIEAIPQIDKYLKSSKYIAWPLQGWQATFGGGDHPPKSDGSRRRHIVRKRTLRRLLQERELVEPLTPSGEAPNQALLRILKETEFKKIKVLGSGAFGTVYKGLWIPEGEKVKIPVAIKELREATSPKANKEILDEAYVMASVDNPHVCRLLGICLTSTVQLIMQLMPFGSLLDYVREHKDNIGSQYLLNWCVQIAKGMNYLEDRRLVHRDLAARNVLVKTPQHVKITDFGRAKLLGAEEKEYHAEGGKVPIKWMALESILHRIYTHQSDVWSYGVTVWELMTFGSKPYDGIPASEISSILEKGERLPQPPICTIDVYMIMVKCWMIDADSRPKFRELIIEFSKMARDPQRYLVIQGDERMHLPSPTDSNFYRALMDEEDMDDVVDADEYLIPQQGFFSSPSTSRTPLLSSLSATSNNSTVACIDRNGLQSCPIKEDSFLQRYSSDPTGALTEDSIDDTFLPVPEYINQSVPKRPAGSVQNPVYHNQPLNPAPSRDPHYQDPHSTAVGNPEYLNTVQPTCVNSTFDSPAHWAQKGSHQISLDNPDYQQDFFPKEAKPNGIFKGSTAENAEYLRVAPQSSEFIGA
Chain of Ba/F3-EGFR (d746-750/T790M/C797S) (P00533 with tags, fused parts or gaps DEL746-750/T790M/C797S): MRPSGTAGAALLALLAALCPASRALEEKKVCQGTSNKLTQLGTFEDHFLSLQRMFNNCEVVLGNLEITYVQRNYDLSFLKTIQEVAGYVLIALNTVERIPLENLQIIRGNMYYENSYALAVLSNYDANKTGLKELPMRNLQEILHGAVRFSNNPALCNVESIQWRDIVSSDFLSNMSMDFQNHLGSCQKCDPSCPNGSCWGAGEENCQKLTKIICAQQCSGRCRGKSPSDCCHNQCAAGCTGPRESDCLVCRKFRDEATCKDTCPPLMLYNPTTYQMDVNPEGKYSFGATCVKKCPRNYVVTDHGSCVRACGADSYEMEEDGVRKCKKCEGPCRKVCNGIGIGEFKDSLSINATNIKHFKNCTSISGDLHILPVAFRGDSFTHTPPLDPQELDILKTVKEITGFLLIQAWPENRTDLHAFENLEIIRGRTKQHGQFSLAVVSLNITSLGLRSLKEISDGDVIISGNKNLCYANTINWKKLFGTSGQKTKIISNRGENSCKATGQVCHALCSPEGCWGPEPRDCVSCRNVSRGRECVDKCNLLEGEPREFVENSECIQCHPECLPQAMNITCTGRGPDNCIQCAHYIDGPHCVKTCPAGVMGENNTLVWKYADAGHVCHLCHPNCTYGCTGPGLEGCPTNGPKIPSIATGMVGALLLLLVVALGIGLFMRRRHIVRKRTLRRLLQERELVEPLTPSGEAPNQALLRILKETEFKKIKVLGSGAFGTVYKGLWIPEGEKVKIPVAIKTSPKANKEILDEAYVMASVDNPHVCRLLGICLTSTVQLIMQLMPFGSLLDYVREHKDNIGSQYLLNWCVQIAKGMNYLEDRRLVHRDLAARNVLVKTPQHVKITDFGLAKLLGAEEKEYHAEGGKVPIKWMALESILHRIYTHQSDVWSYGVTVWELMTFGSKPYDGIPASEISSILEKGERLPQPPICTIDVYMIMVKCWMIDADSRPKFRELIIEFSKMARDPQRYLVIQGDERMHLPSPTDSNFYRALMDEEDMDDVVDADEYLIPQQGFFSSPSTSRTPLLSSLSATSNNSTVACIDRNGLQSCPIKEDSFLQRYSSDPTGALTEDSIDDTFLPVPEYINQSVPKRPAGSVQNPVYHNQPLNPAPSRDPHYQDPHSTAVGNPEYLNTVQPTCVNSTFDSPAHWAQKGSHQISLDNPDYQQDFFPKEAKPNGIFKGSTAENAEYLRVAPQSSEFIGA
Chain of Ba/F3-EGFR (WT) (P00533 whole entry, change not shown): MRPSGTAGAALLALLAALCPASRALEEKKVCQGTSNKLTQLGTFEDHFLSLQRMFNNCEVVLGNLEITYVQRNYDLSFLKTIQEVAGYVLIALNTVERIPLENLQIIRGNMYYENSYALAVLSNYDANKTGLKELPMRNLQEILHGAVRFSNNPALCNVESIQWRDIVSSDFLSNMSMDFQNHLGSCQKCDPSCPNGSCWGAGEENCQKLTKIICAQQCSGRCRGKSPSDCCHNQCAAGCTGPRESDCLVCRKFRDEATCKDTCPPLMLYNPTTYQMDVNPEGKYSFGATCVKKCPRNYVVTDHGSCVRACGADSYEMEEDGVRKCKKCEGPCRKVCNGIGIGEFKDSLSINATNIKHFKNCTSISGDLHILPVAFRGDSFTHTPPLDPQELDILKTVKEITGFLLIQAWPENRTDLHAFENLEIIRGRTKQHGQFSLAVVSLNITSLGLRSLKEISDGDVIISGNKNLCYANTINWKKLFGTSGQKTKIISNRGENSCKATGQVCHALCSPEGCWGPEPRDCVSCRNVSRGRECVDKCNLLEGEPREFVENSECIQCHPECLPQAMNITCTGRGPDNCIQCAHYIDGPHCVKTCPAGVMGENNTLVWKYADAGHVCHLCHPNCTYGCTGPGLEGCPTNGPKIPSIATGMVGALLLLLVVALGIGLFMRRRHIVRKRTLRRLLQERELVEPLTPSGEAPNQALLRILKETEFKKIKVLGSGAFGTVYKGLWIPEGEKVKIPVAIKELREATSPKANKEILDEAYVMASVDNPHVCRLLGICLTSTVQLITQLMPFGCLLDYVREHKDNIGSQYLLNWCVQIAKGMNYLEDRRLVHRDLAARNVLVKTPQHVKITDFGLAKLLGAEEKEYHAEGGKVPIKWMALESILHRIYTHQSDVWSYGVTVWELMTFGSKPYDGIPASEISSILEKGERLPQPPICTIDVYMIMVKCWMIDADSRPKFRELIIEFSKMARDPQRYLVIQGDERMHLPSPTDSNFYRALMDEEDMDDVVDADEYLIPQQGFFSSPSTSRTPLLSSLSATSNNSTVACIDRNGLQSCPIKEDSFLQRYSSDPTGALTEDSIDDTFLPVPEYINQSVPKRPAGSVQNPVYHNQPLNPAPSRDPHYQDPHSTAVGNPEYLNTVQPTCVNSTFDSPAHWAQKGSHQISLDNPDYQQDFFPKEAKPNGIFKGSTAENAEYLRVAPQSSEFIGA

C=CC(=O)N1CC[C@@H](n2cc(-c3cnc4ccccc4c3)c3c(N)ncnc32)C1 [Comparative Example A, (R)-1-(3(4-Amino-5-(quinolin-3-yl)-7H-pyrrolo[2,3-d]pyrimidin-7-yl)pyrrolidin-1-yl) -prop-2-en-1-one, reference compound]
IC50 [1]: 102 nM
GI50 [2, 3]: 3660 nM
GI50 (Ba/F3-EGFR (WT); [4]): 2460 nM

C#Cc1c(-c2cnc3ccccc3c2)c2c(N)ncnc2n1[C@@H]1CCN(C(=O)C=C)C1 [Comparative Example B, (R)-1-(3-(4-Amino-6-ethynyl-5-(quinolin-3-yl)-7H-pyrrolo[2,3-d]pyrimidin-7-yl) -pyrrolidin-1-yl)-prop-2-en-1-one, reference compound]
IC50 [1]: 43 nM
GI50 [2, 3]: 1080 nM
GI50 (Ba/F3-EGFR (WT); [4]): 1050 nM

C#Cc1c(-c2cnc3ccccc3c2)c2c(N)ncnc2n1C12CCC(NC(=O)c3ccccc3)(CC1)C2 [Example 1, N-(4-(4-Amino-6-ethynyl-5-(quinolin-3-yl)-7H-pyrrolo[2,3-d]pyrimidin-7-yl)bicyclo-[2.2.1]heptan-1-yl)benzamide]
IC50 [1]: 0.46 nM
GI50 [2, 5]: 98 nM
GI50 (Ba/F3-EGFR (WT); [5]): 3490 nM

C#Cc1c(-c2cnc3ccccc3c2)c2c(N)ncnc2n1C12CCC(NC(=O)c3cncnc3)(CC1)C2 [Example 2, N-(4-(4-Amino-6-ethynyl-5-(quinolin-3-yl)-7H-pyrrolo[2,3-d]pyrimidin-7-yl)bicyclo-[2.2.1]heptan-1-yl)pyrimidine-5-carboxamide]
IC50 [1]: < 0.3 nM
GI50 [2, 3]: 20 nM
GI50 (Ba/F3-EGFR (WT); [4]): 2650 nM

C#Cc1c(-c2cnc3ccccc3c2)c2c(N)ncnc2n1C12CCC(NC(=O)c3ccnnc3)(CC1)C2 [Example 3, N-(4-(4-Amino-6-ethynyl-5-(quinolin-3-yl)-7H-pyrrolo[2,3-d]pyrimidin-7-yl)bicyclo-[2.2.1]heptan-1-yl)pyridazine-4-carboxamide]
IC50 [1]: < 0.3 nM
GI50 [2, 3]: 56 nM
GI50 (Ba/F3-EGFR (WT); [4]): 3330 nM

C#Cc1c(-c2cnc3ccccc3c2)c2c(N)ncnc2n1C12CCC(N3CCOCC3)(CC1)C2 [Example 9, 6-Ethynyl-7-(4-morpholinobicyclo[2.2.1]heptan-1-yl)-5-(quinolin-3-yl)-7H-pyrrolo[2,3-d]pyrimidine-4-amine]
GI50 [2, 5]: 59 nM
GI50 (Ba/F3-EGFR (WT); [5]): > 2000 nM

C#Cc1c(-c2cnc3ccccc3c2)c2c(N)ncnc2n1C12CCC(CNC(=O)c3ccnn3C)(CC1)C2 [Example 13, N-((4-(4-Amino-6-ethynyl-5-(quinolin-3-yl)-7H-pyrrolo[2,3-d]pyrimidin-7-yl)bicyclo-[2.2.1]heptan-1-yl)methyl)-1-methyl-1H-pyrazole-5-carboxamide]
GI50 [2, 3]: 239 nM
GI50 (Ba/F3-EGFR (WT); [4]): 3600 nM

C#Cc1c(-c2cnc3ccccc3c2)c2c(N)ncnc2n1C12CCC(CNC(=O)c3cnc(C)cn3)(CC1)C2 [Example 14, N-((4-(4-Amino-6-ethynyl-5-(quinolin-3-yl)-7H-pyrrolo[2,3-d]pyrimidin-7-yl)bicyclo-[2.2.1]heptan-1-yl)methyl)-5-methylpyrazine-2-carboxamide]
GI50 [2, 3]: 204 nM
GI50 (Ba/F3-EGFR (WT); [4]): 3500 nM

C#Cc1c(-c2cnc3ccccc3c2)c2c(N)ncnc2n1C12CCC(NC(=O)c3ccc4ncnn4c3)(CC1)C2 [Example 16, N-(4-(4-Amino-6-ethynyl-5-(quinolin-3-yl)-7H-pyrrolo[2,3-d]pyrimidin-7-yl)bicyclo-[2.2.1]heptan-1-yl)-[1.2.4]triazolo[1,5-a]pyrimidin-6-carboxamide]
IC50 [1]: 0.36 nM
GI50 [2, 5]: 32 nM
GI50 (Ba/F3-EGFR (WT); [5]): 1920 nM

C#Cc1c(-c2cnc3ccccc3c2)c2c(N)ncnc2n1C12CCC(NC(=O)c3ccncc3)(CC1)C2 [Example 43]
GI50 [2, 3]: 57 nM
GI50 (Ba/F3-EGFR (WT); [4]): 3290 nM

C#Cc1c(-c2cnc3ccccc3c2)c2c(N)ncnc2n1C12CCC(NC(=O)c3cccnc3)(CC1)C2 [Example 45]
GI50 [2, 3]: 42 nM
GI50 (Ba/F3-EGFR (WT); [4]): 3400 nM
